Structures are written as SMILES. Values after ≈ are worked out from the molar mass of the structure shown. Counter-ions that a name gives are not always drawn. Like-named read-outs stand apart in the source and are kept apart here.

The test system of this experiment is methicillin-resistant Staphylococcus aureus. As to the kind of experiment: Gradient plate test (MIC) against methicillin-resistant Staphylococcus aureus. The experiment is classed as cell-based. As to conditions: for MIC: Staphylococcus aureus. The procedure:
The method used is essentially that described by Bryson and Szybalski in 1952 (Science 116:45-46). The inoculum treatment method used for penicillin resistant Staphylococci was reported by Godzeski et al in Antimicrobial Agents and Chemotherapy, May, 1969, pp. 547-554.
A standard Falcon square plastic petri dish is used. A layer of agar (10 ml.) is poured into one of the square dishes, the dish tipped 5 mm. off the horizontal, and the agar layer allowed to harden in this position. This bottom layer of agar contains the antibiotic, the serum, and/or other material to be tested. The medium is Difco Penassay Agar containing 2 percent agar. We routinely used 4 ml. of human or horse serum for "serum-inactivation" testing. […] Therefore, serum is routinely added only to the bottom layer.
After the bottom, slanted layer of agar medium has hardened, the plate is placed flat and another 10 ml. of medium added and allowed to harden.
The inoculum of resistant Staphylococci, as described, is prepared by diluting the water suspension 1/50 in 0.25 percent agar in sterile water or saline. For Gram negative organisms, an overnight broth culture is diluted 1/50 in the 0.25 percent agar-water. This dilution is thoroughly shaken to evenly suspend the bacteria. To streak the plate, we use a 1 ml. pipet containing an aliquot of the final […] agar dilution. After a little practice, a smooth even stroke of inoculum can be laid down very rapidly. The trick is in the smoothness of the streak--it must be accomplished uniformly and quickly.
After 24 hours incubation at 35°-37° C. the plates are read by simply measuring the length of bacterial growth as a percentage of the entire streak distance which is then converted to the percent of antibiotic concentration in the plate.
Average values of duplicate measurements are calculated and the M.I.C.'s reported are average of 2 streaks on the plate and from 2 to 3 duplicate plates. Eight streaks can be easily placed on each plate. If sharp end points are not obtained, the middle concentration between the beginning of inhibition of the streak to the end of growth is measured. The concentration of the antibiotic under examination is varied from plate to plate in a series as follows: […]
This method of screening penicillins and cephalosporins is quite satisfactory. Control plates containing penicillin and staphcillin or prostaphlin, or other control antibiotic, are used daily for the resistant staphylococcal activity screen. The gradient plate method has shown differences between antibiotics that were not apparent by any other methods of screening. […] We believe that the gradient plate screen is more sensitive to small differences between related antibiotics than other methods and pictures of the plates can provide a permanent record. The method also lends itself readily to modification of specific purposes--e.g., cross gradients.
The compounds listed below are examples of compounds useful in the method of this invention. After the compound name there is given in parentheses, where tested, the minimum inhibitory concentrations (MIC) in micrograms per milliliter (μg/ml) for the compound in the above described gradient plate procedure test against methicillin-resistant Staphylococcus aureus, (in the absence of blood serum/in the presence of 20 percent blood serum).
and pharmaceutically acceptable salts thereof. The abbreviation "s.z." means skip zones.

Where [1] appears, read: in the absence of blood serum, read-out: minimum inhibitory concentration (MIC).
Setting [2] is: in the presence of 20 percent blood serum.
The mark [3] stands for this setting: in the presence of 20 percent blood serum, read-out: minimum inhibitory concentration (MIC).

With `Cn1nnnc1SCC1=C(C(=O)O)N2C(=O)C(NC(=O)CSc3cc(Cl)ccc3Cl)C2SC1` (centres unmarked) [3-(1'-methyl-1'H-tetrazol-5'-ylthiomethyl)-7-[2'-(2",5"-dichlorophenylthio)acetamido]-3-cephem-4-carboxylic acid, dicyclohexylamine salt], the MIC under setting [1] amounted to 2.3 µg/mL. For the same compound, the “minimum inhibitory concentration (MIC)” value under setting [2] is reported as “skip zones”.
For the compound `Cn1nnnc1SCC1=C(C(=O)O)N2C(=O)C(NC(=O)CSc3cc(F)c(Cl)cc3Cl)C2SC1` (centres unmarked) [3-(1'-methyl-1'H-tetrazol-5'-ylthiomethyl)-7-[2'-[2",4"-dichloro-5"-fluorophenylthio)acetamido]-3-cephem-4-carboxylic acid, dicyclohexylamine salt], the MIC under setting [1] is 1.9 µg/mL and the MIC under setting [3] is greater than 20 µg/mL.
As to `O=C(CSc1cc(Cl)ccc1Cl)NC1C(=O)N2C(C(=O)O)=C(CSc3nn[nH]n3)CSC12` (centres unmarked) [3-(1'H-tetrazol-5'-ylthiomethyl)-7-[2'-(2",5"-dichlorophenylthio)acetamido]-3-cephem-4-carboxylic acid], the MIC under setting [1] came to 6.8 µg/mL (≈ 12.7 µM) and the MIC under setting [3] is greater than 1 µg/mL.
On the same counts, the results for `Cc1nnc(SCC2=C(C(=O)O)N3C(=O)C(NC(=O)CSc4cc(F)c(Cl)cc4Cl)C3SC2)s1` (centres unmarked) [3-(5'-methyl-1',3',4'-thiadiazol-2'-ylthiomethyl)-7-[2'-(2",4"-dichloro-5"- fluorophenylthio)acetamido]-3-cephem-4-carboxylic acid, sodium salt] are 2.3 µg/mL and greater than 20 µg/mL.
`Cc1nnc(SCC2=C(C(=O)O)N3C(=O)C(NC(=O)CSc4cc(Cl)ccc4Cl)C3SC2)s1` (centres unmarked) [3-(5'-methyl-1',3',4'-thiadiazol-2'-ylthiomethyl)-7-[2'-(2",5"-dichlorophenylthio)acetamido]-3-cephem-4-carboxylic acid, sodium salt]: the MIC was 1.8 µg/mL under setting [1] and greater than 1 µg/mL under setting [3].
Take `Cc1nnc(SCC2=C(C(=O)O)N3C(=O)C(NC(=O)CSc4ccc(Cl)c(Cl)c4)C3SC2)s1` (centres unmarked) [3-(5'-methyl-1',3',4'-thiadiazol-2'-ylthiomethyl)-7-[2'-(3",4"-dichlorophenylthio)acetamido]-3-cephem-4-carboxylic acid, dicyclohexylamine salt]: the MIC runs as follows: under setting [1], 1.2 µg/mL; under setting [3], greater than 20 µg/mL.
For the compound `Cc1nnc(SCC2=C(C(=O)O)N3C(=O)C(NC(=O)CSc4cc(Cl)cc(Cl)c4)C3SC2)s1` (centres unmarked) [3-(5'-methyl-1',3',4'-thiadiazol-2'-ylthiomethyl)-7-[2'-(3",5"-dichlorophenylthio)acetamido]-3-cephem-4-carboxylic acid, sodium salt], the MIC by setting is: under setting [1], 4.5 µg/mL; under setting [3], greater than 20 µg/mL.
As for `Cn1nnnc1SCC1=C(C(=O)O)N2C(=O)C(NC(=O)CSc3cc(Cl)cc(Cl)c3)C2SC1` (centres unmarked) [3-[1'-methyl-1'H-tetrazol-5'-ylthiomethyl]-7-[2'-(3",5"-dichlorophenylthio)acetamido]-3-cephem-4-carboxylic acid, dicyclohexylamine salt], under setting [1], the MIC was 2.2 µg/mL. Further, under setting [2], the “minimum inhibitory concentration (MIC)” value is given as “skip zones”.
For the compound `COc1ccc(-c2nnc(SCC3=C(C(=O)O)N4C(=O)C(NC(=O)CSc5cc(Cl)ccc5Cl)C4SC3)o2)cc1` (centres unmarked) [3-[5'-(p-methoxyphenyl)-1',3',4'-oxadiazol-5'-ylthiomethyl]-7-[2'-(2",5"-dichlorophenylthio)acetamido]-3-cephem-4-carboxylic acid, sodium salt], the MIC under setting [1] was 4.4 µg/mL.
`O=C(CSc1cc(Cl)ccc1Cl)NC1C(=O)N2C(C(=O)O)=C(CSc3nnc(-c4ccc([N+](=O)[O-])cc4)o3)CSC12` (centres unmarked) [3-[5'-(p-nitrophenyl)-1',3',4'-oxadiazol-2'-ylthiomethyl]-7-[2'-(2",5"-dichlorophenylthio)actamido]-3-cephem-4-carboxylic acid, sodium salt]: the MIC is, setting by setting: under setting [1], 3.9 µg/mL; under setting [3], greater than 20 µg/mL.
Turning to `O=C(CSc1cc(Cl)ccc1Cl)NC1C(=O)N2C(C(=O)O)=C(CSc3nnc(-c4ccccc4)o3)CSC12` (centres unmarked) [3-[5'-phenyl-1',3',4'-oxadiazol-2'-ylthiomethyl]-7-[2'-(2"-5"-dichlorophenylthio)acetamido]-3-cephem-4-carboxylic acid, dicyclohexylamine salt], the MIC is 0.8 µg/mL under setting [1] and greater than 1 µg/mL under setting [3].
`NC(=O)OCC1=C(C(=O)O)N2C(=O)C(NC(=O)CSc3cc(Cl)ccc3Cl)[C@H]2SC1` (some centres unmarked) [3-carbamyloxymethyl-7-[2'-(2",5"-dichlorophenylthio)acetamido]-3-cephem-4-carboxylic acid]: the MIC under setting [1] was found to be 4.1 µg/mL (≈ 8.33 µM) and the MIC under setting [3] came out at 1.7 µg/mL.
As for `CSCC1=C(C(=O)[O-])N2C(=O)C(NC(=O)CSc3cc(Cl)ccc3Cl)[C@H]2SC1.[Na+]` (some centres unmarked) [3-methylthiomethyl-7-[2'-(2",5"-dichlorophenylthio)acetamido]-3-cephem-4-carboxylic acid, sodium salt], the MIC is, setting by setting: (read-out: minimum inhibitory concentration (MIC), in the absence of blood serum) 12 µg/mL; (read-out: minimum inhibitory concentration (MIC), in the presence of 20 percent blood serum) 14.4 µg/mL.
For the compound `CC(=O)OCC1=C(C(=O)O)N2C(=O)C(NC(=O)CSc3cccc(F)c3)C2SC1` (centres unmarked) [7-[2'-(3"-fluorophenylthio)acetamido]cephalosporanic acid], the MIC under setting [1] came out at 10.6 µg/mL (≈ 24.1 µM) and the MIC under setting [3] was determined as 9.3 µg/mL.
On the same counts, the results for `CC(=O)OCC1=C(C(=O)O)N2C(=O)C(NC(=O)CSc3cccc(Cl)c3)C2SC1` (centres unmarked) [7-m-Chlorophenylthioacetamidocephalosporanic acid, potassium salt] are 2 µg/mL and 5.2 µg/mL.
Regarding `CC(=O)OCC1=C(C(=O)O)N2C(=O)C(NC(=O)CSc3cc(F)c(Cl)cc3Cl)C2SC1` (centres unmarked) [Example 4, 7(2,4-Dichloro-5-fluoro-phenylthioacetamido)cephalosporanic acid], the MIC is, setting by setting: under setting [1], 3 µg/mL (≈ 5.89 µM); under setting [3], greater than 20 µg/mL.
On the same counts, the results for `Cn1nnnc1SCC1=C(C(=O)O)N2C(=O)C(NC(=O)CSc3ccc(Cl)c(Cl)c3)[C@H]2SC1` (some centres unmarked) [Example 5, 7-[2-(3,4-dichlorophenylthio)acetamido]-3-(1-methyltetrazol-5-yl-thiomethyl)-3-cephem-4-carboxylic acid] are 2.4 µg/mL (≈ 4.38 µM) and greater than 20 µg/mL.
For the compound `CNC(=O)OCC1=C(C(=O)O)N2C(=O)C(NC(=O)CSc3cc(Cl)ccc3Cl)C2SC1` (centres unmarked) [Example 7, 7(2,5-dichlorophenylmercaptoacetamido)-3-(N-methylcarbamoyloxymethyl)-Δ^3-cephalosphoranic acid], the MIC by setting is: under setting [1], 5.5 µg/mL (≈ 10.9 µM); under setting [3], 18.2 µg/mL.
